Measurements as given in patent US20080031982A1 (Metaproteomics, LLC, priority 2006, published 2008).

Key:
Assay in all cases: KinaseProfiler Assay
[1] = target: T1, TSSK2 (Homo sapiens, UniProt Q96PF2)
T1 sequence (Q96PF2 1-358): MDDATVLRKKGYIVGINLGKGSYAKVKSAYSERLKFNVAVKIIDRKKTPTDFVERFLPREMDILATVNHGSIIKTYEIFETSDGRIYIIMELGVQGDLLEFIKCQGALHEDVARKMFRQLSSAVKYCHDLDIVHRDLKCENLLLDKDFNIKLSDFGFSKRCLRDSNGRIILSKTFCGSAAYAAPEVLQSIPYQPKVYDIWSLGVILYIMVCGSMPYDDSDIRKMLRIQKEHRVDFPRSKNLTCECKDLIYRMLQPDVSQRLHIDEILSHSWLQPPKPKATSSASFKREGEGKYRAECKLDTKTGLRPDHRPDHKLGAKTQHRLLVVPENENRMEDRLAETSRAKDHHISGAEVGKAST

[2] = target: PKBα (Homo sapiens, UniProt P31749)
Chain of PKBα (P31749 whole entry): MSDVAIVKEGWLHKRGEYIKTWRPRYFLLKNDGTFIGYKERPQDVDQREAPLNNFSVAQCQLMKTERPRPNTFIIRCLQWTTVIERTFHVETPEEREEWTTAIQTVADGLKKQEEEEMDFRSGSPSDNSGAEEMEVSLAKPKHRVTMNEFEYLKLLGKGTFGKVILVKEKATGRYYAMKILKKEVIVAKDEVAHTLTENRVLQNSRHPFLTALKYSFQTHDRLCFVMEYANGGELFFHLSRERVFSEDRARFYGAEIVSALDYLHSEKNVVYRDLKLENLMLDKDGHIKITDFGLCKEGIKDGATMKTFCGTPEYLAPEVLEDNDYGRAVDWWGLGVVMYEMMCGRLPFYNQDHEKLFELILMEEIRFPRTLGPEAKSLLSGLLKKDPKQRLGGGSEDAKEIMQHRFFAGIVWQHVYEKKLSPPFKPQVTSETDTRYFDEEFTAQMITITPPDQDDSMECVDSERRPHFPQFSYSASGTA

[3] = system: Lyn
[4] = target: CDK2/cyclinA (Homo sapiens, UniProt P24941)
[5] = target: CDK5/p25 (Homo sapiens, UniProt Q00535)
[6] = system: AMPK
[7] = target: TrkA (Homo sapiens, UniProt P04629)
Chain of TrkA (P04629 33-796): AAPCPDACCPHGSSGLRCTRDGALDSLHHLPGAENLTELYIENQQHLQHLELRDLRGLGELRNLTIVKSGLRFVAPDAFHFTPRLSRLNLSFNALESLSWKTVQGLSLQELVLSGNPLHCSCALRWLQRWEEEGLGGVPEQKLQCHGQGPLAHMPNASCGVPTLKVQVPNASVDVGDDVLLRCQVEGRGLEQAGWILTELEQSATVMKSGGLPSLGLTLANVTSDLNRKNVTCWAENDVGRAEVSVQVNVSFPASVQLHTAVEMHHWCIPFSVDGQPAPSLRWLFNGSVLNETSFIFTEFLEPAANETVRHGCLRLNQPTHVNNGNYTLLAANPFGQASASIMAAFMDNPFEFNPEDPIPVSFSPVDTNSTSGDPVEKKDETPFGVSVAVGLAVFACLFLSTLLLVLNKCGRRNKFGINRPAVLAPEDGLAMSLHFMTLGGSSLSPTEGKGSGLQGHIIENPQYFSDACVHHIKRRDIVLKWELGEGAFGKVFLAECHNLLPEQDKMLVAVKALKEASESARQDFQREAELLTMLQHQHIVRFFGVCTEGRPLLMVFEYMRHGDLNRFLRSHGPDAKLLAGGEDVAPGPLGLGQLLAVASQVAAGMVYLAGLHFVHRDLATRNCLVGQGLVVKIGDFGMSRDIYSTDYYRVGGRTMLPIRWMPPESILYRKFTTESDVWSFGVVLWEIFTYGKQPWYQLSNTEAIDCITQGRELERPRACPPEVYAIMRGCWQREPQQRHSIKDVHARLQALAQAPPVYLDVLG

[8] = target: PKA (Homo sapiens, UniProt P17612)
[9] = target: T2, PhKγ2 (Homo sapiens, UniProt P15735)
T2 sequence (P15735 1-406): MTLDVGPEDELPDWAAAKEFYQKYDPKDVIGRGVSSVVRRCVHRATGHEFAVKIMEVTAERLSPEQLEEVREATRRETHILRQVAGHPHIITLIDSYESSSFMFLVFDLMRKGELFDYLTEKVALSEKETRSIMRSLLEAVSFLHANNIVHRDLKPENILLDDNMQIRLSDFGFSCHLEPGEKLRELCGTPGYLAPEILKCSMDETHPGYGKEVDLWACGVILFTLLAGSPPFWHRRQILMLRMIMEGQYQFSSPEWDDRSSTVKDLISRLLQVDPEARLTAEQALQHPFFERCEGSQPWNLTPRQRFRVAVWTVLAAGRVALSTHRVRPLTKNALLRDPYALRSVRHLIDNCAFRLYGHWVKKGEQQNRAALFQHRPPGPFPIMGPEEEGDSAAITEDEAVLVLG

[10] = target: DAPK2 (Homo sapiens, UniProt Q9UIK4)
Chain of DAPK2 (Q9UIK4 whole entry): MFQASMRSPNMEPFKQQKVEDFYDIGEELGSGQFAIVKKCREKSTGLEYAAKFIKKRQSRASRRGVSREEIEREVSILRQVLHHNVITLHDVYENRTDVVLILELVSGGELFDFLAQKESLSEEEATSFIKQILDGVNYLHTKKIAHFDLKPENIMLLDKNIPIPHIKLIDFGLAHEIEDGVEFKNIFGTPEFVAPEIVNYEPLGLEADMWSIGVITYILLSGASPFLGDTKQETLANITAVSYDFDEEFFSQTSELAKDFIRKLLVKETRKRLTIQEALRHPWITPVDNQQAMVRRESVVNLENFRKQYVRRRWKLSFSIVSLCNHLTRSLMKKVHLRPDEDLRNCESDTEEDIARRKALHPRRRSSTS

[11] = target: Ros (Homo sapiens, UniProt P08922)
Chain of Ros (P08922 28-2347): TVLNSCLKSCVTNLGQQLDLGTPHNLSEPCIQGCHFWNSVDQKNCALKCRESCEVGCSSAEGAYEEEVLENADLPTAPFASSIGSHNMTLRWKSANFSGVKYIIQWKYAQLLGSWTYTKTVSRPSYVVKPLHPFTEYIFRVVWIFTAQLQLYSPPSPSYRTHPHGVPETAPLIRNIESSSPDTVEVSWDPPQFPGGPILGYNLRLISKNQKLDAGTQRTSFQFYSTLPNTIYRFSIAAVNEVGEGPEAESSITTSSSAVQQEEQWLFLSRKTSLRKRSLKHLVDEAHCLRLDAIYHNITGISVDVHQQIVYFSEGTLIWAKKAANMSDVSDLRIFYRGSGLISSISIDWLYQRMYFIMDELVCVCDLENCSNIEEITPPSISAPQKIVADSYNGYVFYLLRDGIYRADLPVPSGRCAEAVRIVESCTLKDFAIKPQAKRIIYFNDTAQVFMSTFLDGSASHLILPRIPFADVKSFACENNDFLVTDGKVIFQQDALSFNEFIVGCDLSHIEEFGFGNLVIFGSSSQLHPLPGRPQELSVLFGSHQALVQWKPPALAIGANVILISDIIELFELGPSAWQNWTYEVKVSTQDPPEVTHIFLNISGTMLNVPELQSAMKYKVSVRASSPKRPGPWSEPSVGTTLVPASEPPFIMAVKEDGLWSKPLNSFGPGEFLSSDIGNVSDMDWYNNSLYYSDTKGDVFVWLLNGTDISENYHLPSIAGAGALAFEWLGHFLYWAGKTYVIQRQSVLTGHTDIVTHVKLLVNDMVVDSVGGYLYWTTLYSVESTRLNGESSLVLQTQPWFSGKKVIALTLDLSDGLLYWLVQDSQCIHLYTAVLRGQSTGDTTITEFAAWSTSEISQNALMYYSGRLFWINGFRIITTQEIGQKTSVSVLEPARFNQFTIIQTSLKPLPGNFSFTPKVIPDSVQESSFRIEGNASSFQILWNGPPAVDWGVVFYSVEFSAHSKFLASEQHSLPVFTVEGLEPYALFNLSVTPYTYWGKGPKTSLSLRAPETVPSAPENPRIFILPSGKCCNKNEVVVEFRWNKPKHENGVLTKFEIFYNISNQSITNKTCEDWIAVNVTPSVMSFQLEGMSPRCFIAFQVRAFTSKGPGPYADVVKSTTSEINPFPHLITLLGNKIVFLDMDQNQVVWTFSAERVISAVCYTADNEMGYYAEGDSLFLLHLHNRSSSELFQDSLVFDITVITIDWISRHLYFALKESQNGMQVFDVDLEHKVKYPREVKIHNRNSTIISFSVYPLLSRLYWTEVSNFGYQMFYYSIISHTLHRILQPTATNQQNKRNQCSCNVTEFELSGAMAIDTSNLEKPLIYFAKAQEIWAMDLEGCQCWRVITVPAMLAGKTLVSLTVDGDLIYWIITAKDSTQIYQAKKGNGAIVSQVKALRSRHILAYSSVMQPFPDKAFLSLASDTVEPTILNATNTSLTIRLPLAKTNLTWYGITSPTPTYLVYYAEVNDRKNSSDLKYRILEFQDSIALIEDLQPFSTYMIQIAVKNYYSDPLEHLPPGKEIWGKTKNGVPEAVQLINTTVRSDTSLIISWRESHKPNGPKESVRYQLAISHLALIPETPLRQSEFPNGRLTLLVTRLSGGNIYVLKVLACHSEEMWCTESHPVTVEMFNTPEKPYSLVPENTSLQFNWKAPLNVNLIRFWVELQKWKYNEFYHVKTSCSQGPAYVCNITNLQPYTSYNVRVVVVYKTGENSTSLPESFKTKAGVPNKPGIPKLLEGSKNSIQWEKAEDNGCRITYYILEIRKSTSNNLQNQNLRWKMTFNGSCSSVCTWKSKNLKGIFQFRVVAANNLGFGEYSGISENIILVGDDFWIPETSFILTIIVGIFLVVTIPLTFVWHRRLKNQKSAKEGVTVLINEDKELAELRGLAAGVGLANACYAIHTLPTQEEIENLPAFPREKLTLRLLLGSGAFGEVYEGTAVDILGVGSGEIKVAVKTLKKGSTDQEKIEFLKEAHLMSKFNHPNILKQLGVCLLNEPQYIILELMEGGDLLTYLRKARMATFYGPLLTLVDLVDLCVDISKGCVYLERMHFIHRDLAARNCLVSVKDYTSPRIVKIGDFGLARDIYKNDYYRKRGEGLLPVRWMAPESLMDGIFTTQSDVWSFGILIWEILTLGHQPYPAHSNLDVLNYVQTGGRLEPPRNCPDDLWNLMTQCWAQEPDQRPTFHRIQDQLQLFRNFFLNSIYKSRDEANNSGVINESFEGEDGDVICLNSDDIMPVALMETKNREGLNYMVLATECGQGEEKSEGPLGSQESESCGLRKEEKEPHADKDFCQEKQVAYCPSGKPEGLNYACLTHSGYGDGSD

[12] = target: EphA2 (Homo sapiens, UniProt P29317)
Chain of EphA2 (P29317 24-976): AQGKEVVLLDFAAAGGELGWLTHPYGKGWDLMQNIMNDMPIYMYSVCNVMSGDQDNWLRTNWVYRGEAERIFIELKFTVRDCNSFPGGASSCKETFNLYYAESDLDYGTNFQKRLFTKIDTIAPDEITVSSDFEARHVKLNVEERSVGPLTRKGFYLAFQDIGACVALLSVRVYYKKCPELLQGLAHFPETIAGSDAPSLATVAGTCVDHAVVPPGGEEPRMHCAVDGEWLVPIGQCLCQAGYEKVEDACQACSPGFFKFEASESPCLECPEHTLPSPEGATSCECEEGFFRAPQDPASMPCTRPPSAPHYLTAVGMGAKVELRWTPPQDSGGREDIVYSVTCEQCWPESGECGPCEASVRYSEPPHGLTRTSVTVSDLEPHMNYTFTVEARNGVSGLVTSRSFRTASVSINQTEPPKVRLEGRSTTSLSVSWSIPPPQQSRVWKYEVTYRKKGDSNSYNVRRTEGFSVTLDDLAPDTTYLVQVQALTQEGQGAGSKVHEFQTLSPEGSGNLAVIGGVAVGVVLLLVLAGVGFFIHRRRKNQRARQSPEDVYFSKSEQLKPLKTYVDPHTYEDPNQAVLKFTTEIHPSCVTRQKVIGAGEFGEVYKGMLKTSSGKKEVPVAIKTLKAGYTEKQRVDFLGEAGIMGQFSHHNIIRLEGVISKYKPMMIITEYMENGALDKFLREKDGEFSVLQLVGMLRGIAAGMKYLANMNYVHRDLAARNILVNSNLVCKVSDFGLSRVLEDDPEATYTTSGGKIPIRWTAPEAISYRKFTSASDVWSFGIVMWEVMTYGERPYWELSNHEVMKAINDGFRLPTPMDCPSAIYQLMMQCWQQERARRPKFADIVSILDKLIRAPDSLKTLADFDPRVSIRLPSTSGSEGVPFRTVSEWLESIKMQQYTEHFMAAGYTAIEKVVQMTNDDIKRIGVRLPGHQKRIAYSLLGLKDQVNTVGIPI

With `COc1cc(O)c(CC=C(C)C)c(O)c1C(=O)/C=C/c1ccc(O)cc1` [Xanthohumol, xanthohumol] the “Kinase activity, % of Control” value ([1]; 1 ug/ml) was 102 % of Control, the “Kinase activity, % of Control” value ([1]; 5 ug/ml) was 95 % of Control and the “Kinase activity, % of Control” value ([1]; 25 ug/ml) was 61 % of Control. For the same molecule, the “Kinase activity, % of Control” value ([1]; 50 ug/ml) was 48 % of Control, the “Kinase activity, % of Control” value ([2]; 1 ug/ml) was 102 % of Control and the “Kinase activity, % of Control” value ([2]; 25 ug/ml) was 18 % of Control. For the same molecule, the “Kinase activity, % of Control” value ([2]; 50 ug/ml) was 5 % of Control, the “Kinase activity, % of Control” value ([3]; 1 ug/ml) was 97 % of Control and the “Kinase activity, % of Control” value ([3]; 5 ug/ml) was 40 % of Control. For the same molecule, the “Kinase activity, % of Control” value ([3]; 25 ug/ml) was 4 % of Control, the “Kinase activity, % of Control” value ([3]; 50 ug/ml) was 2 % of Control and the “Kinase activity, % of Control” value ([4]; 1 ug/ml) was 107 % of Control. For the same molecule, the “Kinase activity, % of Control” value ([4]; 5 ug/ml) was 96 % of Control, the “Kinase activity, % of Control” value ([4]; 25 ug/ml) was 57 % of Control and the “Kinase activity, % of Control” value ([4]; 50 ug/ml) was 6 % of Control. For the same molecule, the “Kinase activity, % of Control” value ([5]; 25 ug/ml) was 24 % of Control, the “Kinase activity, % of Control” value ([5]; 50 ug/ml) was 87 % of Control and the “Kinase activity, % of Control” value ([6]; 1 ug/ml) was 122 % of Control. For the same molecule, the “Kinase activity, % of Control” value ([6]; 5 ug/ml) was 113 % of Control, the “Kinase activity, % of Control” value ([6]; 25 ug/ml) was 90 % of Control and the “Kinase activity, % of Control” value ([6]; 50 ug/ml) was 81 % of Control. The “Kinase activity, % of Control” value ([7]; 1 ug/ml) was 36 % of Control, the “Kinase activity, % of Control” value ([7]; 5 ug/ml) was 19 % of Control and the “Kinase activity, % of Control” value ([7]; 25 ug/ml) was 8 % of Control. For the same molecule, the “Kinase activity, % of Control” value ([7]; 50 ug/ml) was 3 % of Control, the “Kinase activity, % of Control” value ([8]; 1 ug/ml) was 105 % of Control and the “Kinase activity, % of Control” value ([8]; 5 ug/ml) was 109 % of Control. For the same molecule, the “Kinase activity, % of Control” value ([8]; 25 ug/ml) was 98 % of Control, the “Kinase activity, % of Control” value ([8]; 50 ug/ml) was 21 % of Control and the “Kinase activity, % of Control” value ([9]; 1 ug/ml) was 106 % of Control. The “Kinase activity, % of Control” value ([9]; 5 ug/ml) was 60 % of Control, the “Kinase activity, % of Control” value ([9]; 25 ug/ml) was 11 % of Control and the “Kinase activity, % of Control” value ([9]; 50 ug/ml) was 5 % of Control. For the same molecule, the “Kinase activity, % of Control” value ([10]; 1 ug/ml) was 105 % of Control, the “Kinase activity, % of Control” value ([10]; 5 ug/ml) was 88 % of Control and the “Kinase activity, % of Control” value ([10]; 25 ug/ml) was 45 % of Control. For the same molecule, the “Kinase activity, % of Control” value ([10]; 50 ug/ml) was 26 % of Control, the “Kinase activity, % of Control” value ([11]; 1 ug/ml) was 101 % of Control and the “Kinase activity, % of Control” value ([11]; 5 ug/ml) was 99 % of Control. The “Kinase activity, % of Control” value ([11]; 25 ug/ml) was 85 % of Control, the “Kinase activity, % of Control” value ([11]; 50 ug/ml) was 94 % of Control and the “Kinase activity, % of Control” value ([12]; 1 ug/ml) was 124 % of Control. For the same molecule, the “Kinase activity, % of Control” value ([12]; 25 ug/ml) was 121 % of Control and the “Kinase activity, % of Control” value ([12]; 50 ug/ml) was 52 % of Control.
